Experimental data as given in US12516056B2, “Compounds for inhibition of janus kinase 1” (MANKIND PHARMA LTD., priority 2019, dated 2026).
Counter-ions that a name gives are not always drawn. Like-named read-outs stand apart in the source and are kept apart here.

Key:
Recombinant TYK2 = target: T1, Recombinant TYK2 (Homo sapiens, UniProt P29597); assay: JAK biochemical assay (LANCE Ultra TR-FRET), TYK2; settings: recombinant TYK2, TR-FRET; read-out: Biochemical Assay (μM) TYK2
T1 construct: purchased Carna Biosciences
T1 sequence (P29597 whole entry): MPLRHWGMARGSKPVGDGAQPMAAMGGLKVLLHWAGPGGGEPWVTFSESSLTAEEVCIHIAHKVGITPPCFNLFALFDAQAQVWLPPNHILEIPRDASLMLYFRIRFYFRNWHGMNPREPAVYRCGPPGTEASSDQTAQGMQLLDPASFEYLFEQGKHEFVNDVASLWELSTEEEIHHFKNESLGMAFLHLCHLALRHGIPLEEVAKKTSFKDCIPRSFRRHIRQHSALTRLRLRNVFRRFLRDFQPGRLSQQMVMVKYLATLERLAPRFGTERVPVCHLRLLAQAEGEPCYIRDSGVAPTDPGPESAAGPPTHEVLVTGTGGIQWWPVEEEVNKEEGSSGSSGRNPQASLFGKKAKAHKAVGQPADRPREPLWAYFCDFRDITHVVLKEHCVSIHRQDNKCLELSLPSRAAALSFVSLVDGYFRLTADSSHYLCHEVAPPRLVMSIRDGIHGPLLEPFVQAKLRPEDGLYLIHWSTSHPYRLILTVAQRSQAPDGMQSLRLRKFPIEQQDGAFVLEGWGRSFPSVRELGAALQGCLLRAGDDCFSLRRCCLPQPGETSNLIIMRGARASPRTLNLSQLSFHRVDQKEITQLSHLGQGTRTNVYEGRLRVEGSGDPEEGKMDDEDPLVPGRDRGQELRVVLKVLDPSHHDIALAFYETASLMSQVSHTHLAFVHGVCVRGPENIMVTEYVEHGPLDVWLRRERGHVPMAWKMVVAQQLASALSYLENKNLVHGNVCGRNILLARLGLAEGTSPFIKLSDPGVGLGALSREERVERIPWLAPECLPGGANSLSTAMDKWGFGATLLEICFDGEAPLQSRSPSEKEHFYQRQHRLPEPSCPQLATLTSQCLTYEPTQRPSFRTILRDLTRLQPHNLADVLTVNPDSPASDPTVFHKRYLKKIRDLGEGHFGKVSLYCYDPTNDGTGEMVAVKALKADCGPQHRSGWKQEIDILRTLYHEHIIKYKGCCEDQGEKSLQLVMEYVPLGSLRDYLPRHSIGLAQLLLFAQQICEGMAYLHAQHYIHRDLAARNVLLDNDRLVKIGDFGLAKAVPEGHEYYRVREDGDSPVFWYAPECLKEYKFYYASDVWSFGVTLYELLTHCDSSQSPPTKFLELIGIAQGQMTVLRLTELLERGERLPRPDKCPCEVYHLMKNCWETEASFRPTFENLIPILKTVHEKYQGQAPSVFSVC
Procedure, shortened: (§1)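 TR-FRET read-out of ULight substrate phosphorylation by recombinant kinase gives % inhibition relative to vehicle. The assay buffer is HEPES pH 7.5 with EGTA, MgCl2, DTT and Tween-20.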

Recombinant JAK3 = target: T2, Recombinant JAK3 (Homo sapiens, UniProt P52333); assay: JAK biochemical assay (LANCE Ultra TR-FRET), JAK3; settings: recombinant JAK3, TR-FRET; read-out: Biochemical Assay (μM) JAK3
T2 construct: purchased Carna Biosciences
T2 sequence (P52333 1-1124): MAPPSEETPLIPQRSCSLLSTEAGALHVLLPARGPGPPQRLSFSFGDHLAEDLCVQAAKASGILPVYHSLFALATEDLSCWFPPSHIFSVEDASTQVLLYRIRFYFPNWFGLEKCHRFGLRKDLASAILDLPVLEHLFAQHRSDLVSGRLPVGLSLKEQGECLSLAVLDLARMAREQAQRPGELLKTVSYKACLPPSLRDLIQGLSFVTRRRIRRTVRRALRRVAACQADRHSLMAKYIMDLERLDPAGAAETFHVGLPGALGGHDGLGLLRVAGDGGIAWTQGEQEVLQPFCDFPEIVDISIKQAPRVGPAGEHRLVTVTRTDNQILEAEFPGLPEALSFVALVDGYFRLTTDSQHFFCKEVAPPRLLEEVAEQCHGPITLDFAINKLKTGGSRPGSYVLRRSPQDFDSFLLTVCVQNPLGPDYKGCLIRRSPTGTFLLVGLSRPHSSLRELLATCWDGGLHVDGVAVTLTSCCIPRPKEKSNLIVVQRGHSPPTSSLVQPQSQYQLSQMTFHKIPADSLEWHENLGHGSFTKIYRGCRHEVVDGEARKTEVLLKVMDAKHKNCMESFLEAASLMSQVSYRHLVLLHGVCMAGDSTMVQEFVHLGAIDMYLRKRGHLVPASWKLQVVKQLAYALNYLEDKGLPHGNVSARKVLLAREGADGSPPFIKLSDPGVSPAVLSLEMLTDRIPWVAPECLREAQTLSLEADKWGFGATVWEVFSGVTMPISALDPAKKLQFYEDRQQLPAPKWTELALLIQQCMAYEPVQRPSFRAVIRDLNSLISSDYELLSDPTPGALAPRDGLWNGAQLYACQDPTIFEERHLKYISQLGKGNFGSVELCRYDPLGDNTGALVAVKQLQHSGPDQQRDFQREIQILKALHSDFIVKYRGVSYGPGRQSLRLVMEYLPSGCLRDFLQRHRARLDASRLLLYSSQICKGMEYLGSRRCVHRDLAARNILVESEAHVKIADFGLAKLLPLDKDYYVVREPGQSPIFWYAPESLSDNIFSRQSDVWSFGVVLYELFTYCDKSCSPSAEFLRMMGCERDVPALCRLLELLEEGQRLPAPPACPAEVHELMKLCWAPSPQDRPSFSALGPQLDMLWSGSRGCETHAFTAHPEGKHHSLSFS
Procedure, shortened: as §1

Recombinant JAK1 = target: T3, Recombinant JAK1 (Homo sapiens, UniProt P23458); assay: JAK biochemical assay (LANCE Ultra TR-FRET), JAK1; settings: recombinant JAK1, TR-FRET; read-out: Biochemical Assay (μM) JAK1
T3 construct: purchased Carna Biosciences
T3 sequence (P23458 whole entry): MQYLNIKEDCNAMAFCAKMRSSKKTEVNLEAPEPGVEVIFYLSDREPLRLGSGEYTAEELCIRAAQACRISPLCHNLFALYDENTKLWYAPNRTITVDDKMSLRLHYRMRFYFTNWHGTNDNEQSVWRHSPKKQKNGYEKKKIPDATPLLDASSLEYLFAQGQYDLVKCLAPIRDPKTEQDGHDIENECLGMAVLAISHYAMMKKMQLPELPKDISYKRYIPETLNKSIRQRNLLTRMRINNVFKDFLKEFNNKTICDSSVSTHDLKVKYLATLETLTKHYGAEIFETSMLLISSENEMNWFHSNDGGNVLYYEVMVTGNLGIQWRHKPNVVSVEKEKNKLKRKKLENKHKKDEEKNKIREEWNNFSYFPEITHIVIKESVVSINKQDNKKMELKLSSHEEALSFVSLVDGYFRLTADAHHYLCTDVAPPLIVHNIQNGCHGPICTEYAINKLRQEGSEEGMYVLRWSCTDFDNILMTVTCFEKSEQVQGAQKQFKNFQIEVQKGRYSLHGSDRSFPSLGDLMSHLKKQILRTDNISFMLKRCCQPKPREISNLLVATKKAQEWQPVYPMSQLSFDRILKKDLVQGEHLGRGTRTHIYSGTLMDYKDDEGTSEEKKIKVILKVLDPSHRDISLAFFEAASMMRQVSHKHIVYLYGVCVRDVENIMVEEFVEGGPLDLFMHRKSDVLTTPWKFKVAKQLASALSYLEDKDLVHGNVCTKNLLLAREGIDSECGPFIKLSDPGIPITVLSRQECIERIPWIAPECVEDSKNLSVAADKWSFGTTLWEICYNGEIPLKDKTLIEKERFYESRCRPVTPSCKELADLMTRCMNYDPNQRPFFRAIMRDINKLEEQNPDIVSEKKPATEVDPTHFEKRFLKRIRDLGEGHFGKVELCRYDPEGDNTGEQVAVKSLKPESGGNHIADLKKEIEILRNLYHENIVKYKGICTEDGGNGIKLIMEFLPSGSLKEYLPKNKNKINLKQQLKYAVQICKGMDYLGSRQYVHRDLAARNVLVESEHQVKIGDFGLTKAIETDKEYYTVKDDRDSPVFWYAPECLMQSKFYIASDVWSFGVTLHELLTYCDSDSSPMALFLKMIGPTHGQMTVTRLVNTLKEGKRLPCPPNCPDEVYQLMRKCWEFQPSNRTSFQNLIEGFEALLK
Procedure, shortened: as §1

[1] = test system: STAT3 phosphorylation by IL-6 in TF-1 cells; assay: JAK cellular assay: STAT3 phosphorylation by IL-6 in TF-1 cells (HTRF); type: cell-based; settings: IL-6 30 ng/ml, pSTAT3 HTRF, read-out: Cell Based Assay (μM) TF-1/IL-6/pSTAT3
Experimental: TF-1 cells were starved overnight in OptiMEM medium with 0.5% charcoal stripped fetal bovine serum, 0.1 mM nonessential amino acids (NEAA), 1 mM sodium pyruvate and without phenol red in CO2 incubator maintained at 37° c. Next day, cells were resuspended in RPMI without phenol red and dispensed into a 96 well plate at a final cell density of 1,20,000 cells per well. Compounds were diluted in DMSO and added to cells and incubated for 30 minutes in CO2 incubator maintained at 37° c. Final DMSO concentration in cell based assay was 0.2%. Human recombinant cytokines, IL-6 (30 ng/ml) and GMCSF (5 ng/ml) were added to the plate containing cells along with compound and incubated for 20 minutes with gentle tapping at every 5 minutes once. Compound mediated effects on STAT3 and STAT5 phosphorylation was measured in the lysates prepared by using CISBIO pSTAT3 and pSTAT5 detection kits by HTRF method. Background signal obtained from cells which were not activated with cytokines, was subtracted from vehicle controls and compound treated wells.

Recombinant JAK2 = target: T4, Recombinant JAK2 (Homo sapiens, UniProt O60674); assay: JAK biochemical assay (LANCE Ultra TR-FRET), JAK2; settings: recombinant JAK2, TR-FRET; read-out: Biochemical Assay (μM) JAK2
T4 construct: purchased Carna Biosciences
T4 sequence (O60674 whole entry): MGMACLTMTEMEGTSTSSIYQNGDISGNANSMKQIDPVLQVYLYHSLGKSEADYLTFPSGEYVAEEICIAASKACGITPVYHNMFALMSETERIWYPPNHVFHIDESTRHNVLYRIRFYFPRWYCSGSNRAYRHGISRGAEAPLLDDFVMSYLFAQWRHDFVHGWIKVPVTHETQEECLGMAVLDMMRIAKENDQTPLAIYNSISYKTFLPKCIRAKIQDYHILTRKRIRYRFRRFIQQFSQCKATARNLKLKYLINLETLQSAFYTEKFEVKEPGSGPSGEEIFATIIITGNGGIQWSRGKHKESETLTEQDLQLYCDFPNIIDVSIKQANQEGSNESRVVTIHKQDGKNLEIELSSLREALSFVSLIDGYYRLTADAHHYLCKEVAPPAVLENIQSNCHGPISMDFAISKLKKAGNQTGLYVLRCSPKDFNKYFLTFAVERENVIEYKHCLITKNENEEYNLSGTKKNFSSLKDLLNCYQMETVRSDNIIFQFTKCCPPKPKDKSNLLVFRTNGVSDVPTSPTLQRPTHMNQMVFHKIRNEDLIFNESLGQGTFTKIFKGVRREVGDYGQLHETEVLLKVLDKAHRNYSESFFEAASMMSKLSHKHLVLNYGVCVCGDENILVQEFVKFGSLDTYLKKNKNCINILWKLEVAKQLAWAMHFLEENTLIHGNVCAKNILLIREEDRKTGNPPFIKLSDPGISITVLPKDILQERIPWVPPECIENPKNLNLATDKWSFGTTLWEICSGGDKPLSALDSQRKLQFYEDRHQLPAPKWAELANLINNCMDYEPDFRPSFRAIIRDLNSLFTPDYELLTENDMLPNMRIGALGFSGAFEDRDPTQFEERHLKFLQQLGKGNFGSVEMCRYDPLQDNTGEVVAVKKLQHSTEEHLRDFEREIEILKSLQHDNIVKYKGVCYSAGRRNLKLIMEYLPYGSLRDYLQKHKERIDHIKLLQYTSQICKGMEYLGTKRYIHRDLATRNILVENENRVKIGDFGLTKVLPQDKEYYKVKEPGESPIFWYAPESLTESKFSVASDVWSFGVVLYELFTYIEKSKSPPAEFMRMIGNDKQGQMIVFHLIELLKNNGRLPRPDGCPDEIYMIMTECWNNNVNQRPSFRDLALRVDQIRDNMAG
Procedure, shortened: as §1

Row | IC50 (Recombinant TYK2) [µM] | IC50 (Recombinant JAK3) [µM] | IC50 (Recombinant JAK1) [µM] | IC50 ([1]; Homo sapiens, TF-1, TF-1 cells) [µM] | IC50 (Recombinant JAK2) [µM] | IC50 ([1]; TF-1 cells, hydrochloride) [µM] | Structure (SMILES)
1 | 0.182 | 0.175 | 0.021 | > 10 | 0.036 |  | O=C(NCC(F)(F)F)Nc1ccc(-c2ccnc3[nH]c(=O)[nH]c23)cc1 [Example 1003, 1-(2,2,2-trifluoroethyl)-3-(4-(2,3-dihydro-2-oxo-1H-imidazo[4,5-b]pyridin-7-yl)phenyl)urea]
2 | > 1 |  |  | > 10 |  |  | O=C(NCC(F)(F)F)Nc1ccc(-c2ccnc3[nH]c(=O)[nH]c23)cn1 [Example 1005, 1-(2,2,2-trifluoroethyl)-3-(5-(2,3-dihydro-2-oxo-1H-imidazo[4,5-b]pyridin-7-yl)pyridin-2-yl)urea]
3 | < 0.5 |  | < 0.5 | 10 | < 0.5 |  | N#CCC(NC(=O)n1cc(-c2ccnc3[nH]c(=O)[nH]c23)cn1)C1CCCC1 (stereo not drawn) [Example 1039, N-(2-cyano-1-cyclopentylethyl)-4-(2,3-dihydro-2-oxo-1H-imidazo[4,5-b]pyridin-7-yl)-1H-pyrazole-1-carboxamide]
4 | > 0.5 | > 0.5 |  | > 10 | > 0.5 |  | N#CC1CCCCC1NC(=O)n1cc(-c2ccnc3[nH]cnc23)cn1 (stereo not drawn) [Example 1066, N-(2-cyanocyclohexyl)-4-(3H-imidazo[4,5-b]pyridin-7-yl)-1H-pyrazole-1-carboxamide]
5 |  | < 0.5 | < 0.5 |  | < 0.5 | > 1 | N#CCc1ccc(-n2cc(-c3ccnc4[nH]cnc34)cn2)nc1 [Example 1082, 2-(6-(4-(3H-imidazo[4,5-b]pyridin-7-yl)-1H-pyrazol-1-yl)pyridin-3-yl)acetonitrile hydrochloride]
6 | > 1 | > 1 | > 1 |  | > 1 |  | CS(=O)(=O)CCC(c1cccc(-n2cc(-c3ccnc4[nH]cnc34)cn2)n1)C(F)(F)F (stereo not drawn) [Example 1175, 7-(1-(6-(1,1,1-trifluoro-4-(methylsulfonyl)butan-2-yl)pyridin-2-yl)-1H-pyrazol-4-yl)-3H-imidazo[4,5-b]pyridine]
7 | > 1 | > 1 | > 1 |  | > 1 |  | CS(=O)(=O)CCC(c1ccnc(-n2cc(-c3ccnc4[nH]cnc34)cn2)c1)C(F)(F)F (stereo not drawn) [Example 1176, 7-(1-(4-(1,1,1-trifluoro-4-(methylsulfonyl)butan-2-yl)pyridin-2-yl)-1H-pyrazol-4-yl)-3H-imidazo[4,5-b]pyridine]
8 | > 1 | > 1 | > 0.5 |  | > 1 |  | CS(=O)(=O)CCC(c1ccc(-n2cc(-c3ccnc4[nH]c(=O)[nH]c34)cn2)nc1)C(F)(F)F (stereo not drawn) [Example 1189, 7-(1-(5-(1,1,1-trifluoro-4-(methylsulfonyl)butan-2-yl)pyridin-2-yl)-1H-pyrazol-4-yl)-1H-imidazo[4,5-b]pyridin-2(3H)-one]
9 | > 1 | > 0.1 | > 0.1 |  | > 0.5 |  | CC(C)(O)CC(c1ccc(-n2cc(-c3ccnc4[nH]cnc34)cn2)nc1)C(F)(F)F (stereo not drawn) [Example 1193, 4-(6-(4-(3H-imidazo[4,5-b]pyridin-7-yl)-1H-pyrazol-1-yl)pyridin-3-yl)-5,5,5-trifluoro-2-methylpentan-2-ol]
10 | > 1 | > 0.5 | > 0.5 |  | > 0.5 |  | CS(=O)(=O)CC(Cc1ccc(-n2cc(-c3ccnc4[nH]cnc34)cn2)nc1)C(F)(F)F (stereo not drawn) [Example 1194, 7-(1-(5-(3,3,3-trifluoro-2-((methylsulfonyl)methyl)propyl)pyridin-2-yl)-1H-pyrazol-4-yl)-3H-imidazo[4,5-b]pyridine]
11 | > 1 | > 0.1 | > 0.1 |  | > 0.5 |  | CC(C)(CO)C(c1ccc(-n2cc(-c3ccnc4[nH]cnc34)cn2)nc1)C(F)(F)F (stereo not drawn) [Example 1196, 3-(6-(4-(3H-imidazo[4,5-b]pyridin-7-yl)-1H-pyrazol-1-yl)pyridin-3-yl)-4,4,4-trifluoro-2,2-dimethylbutan-1-ol]
12 | > 0.5 | < 0.1 | < 0.1 |  | > 0.1 |  | FC(F)(F)C(CCNC1CCCCC1)c1ccc(-n2cc(-c3ccnc4[nH]cnc34)cn2)nc1 (stereo not drawn) [Example 1199, N-(3-(6-(4-(3H-imidazo[4,5-b]pyridin-7-yl)-1H-pyrazol-1-yl)pyridin-3-yl)-4,4,4-trifluorobutyl)cyclohexanamine]
13 | > 1 | < 0.1 | < 0.1 |  | < 0.1 |  | O=S(=O)(CCC(c1ccc(-n2cc(-c3ccnc4[nH]cnc34)cn2)nc1)C(F)(F)F)CC1CC1 (stereo not drawn) [Example 1204, 7-(1-(5-(4-(cyclopropylmethylsulfonyl)-1,1,1-trifluorobutan-2-yl)pyridin-2-yl)-1H-pyrazol-4-yl)-3H-imidazo[4,5-b]pyridine]
14 | > 1 | > 0.1 | < 0.1 |  | > 0.1 |  | O=S(=O)(CC1CC1)CC(c1ccc(-n2cc(-c3ccnc4[nH]cnc34)cn2)nc1)C(F)(F)F (stereo not drawn) [Example 1205, 7-(1-(5-(3-(cyclopropylmethylsulfonyl)-1,1,1-trifluoropropan-2-yl)pyridin-2-yl)-1H-pyrazol-4-yl)-3H-imidazo[4,5-b]pyridine]
15 | > 1 | > 0.5 | > 0.1 |  | > 0.1 |  | FC(F)(F)C(CN1CCOCC1)c1ccc(-n2cc(-c3ccnc4[nH]cnc34)cn2)nc1 (stereo not drawn) [Example 1206, 7-(1-(5-(1,1,1-trifluoro-3-morpholinopropan-2-yl)pyridin-2-yl)-1H-pyrazol-4-yl)-3H-imidazo[4,5-b]pyridine]
16 | > 0.5 | 0.005 |  | > 1 | 0.01 |  | CC(C)NCC[C@H](c1ccc(-n2cc(-c3ccnc4[nH]cnc34)cn2)nc1)C(F)(F)F [Example 1208, (R)-3-(6-(4-(3H-imidazo[4,5-b]pyridin-7-yl)-1H-pyrazol-1-yl)pyridin-3-yl)-4,4,4-trifluoro-N-isopropylbutan-1-amine]
17 | > 1 | > 0.1 | < 0.1 |  | > 0.1 |  | CC(C)N(CCC(c1ccc(-n2cc(-c3ccnc4[nH]cnc34)cn2)nc1)C(F)(F)F)C(C)C (stereo not drawn) [Example 1211, 3-(6-(4-(3H-imidazo[4,5-b]pyridin-7-yl)-1H-pyrazol-1-yl)pyridin-3-yl)-4,4,4-trifluoro-N,N-diisopropylbutan-1-amine]
18 |  |  |  | > 0.5 |  |  | CC(C)NCC(c1ccc(-n2cc(-c3ccnc4[nH]cnc34)cn2)nc1)C(F)(F)F (stereo not drawn) [Example 1218, 2-(6-(4-(3H-imidazo[4,5-b]pyridin-7-yl)-1H-pyrazol-1-yl)pyridin-3-yl)-3,3,3-trifluoro-N-isopropylpropan-1-amine]
19 | > 1 | > 0.5 | > 0.5 |  | > 0.5 |  | O=C(CC(c1ccc(-n2cc(-c3ccnc4[nH]cnc34)cn2)nc1)C(F)(F)F)N1CCOCC1 (stereo not drawn) [Example 1249, 3-(6-(4-(3H-imidazo[4,5-b]pyridin-7-yl)-1H-pyrazol-1-yl)pyridin-3-yl)-4,4,4-trifluoro-1-morpholinobutan-1-one]
